Results published in PubChem BioAssay AID248 (DTP/NCI, 2004).
Several values for one entry are separate records, joined by “and”; a condition that tells them apart may be missing. Identical values can stand only once. Inconclusive results and toxic doses are left out. No stated cut-off is given here; in the data, active means T/C of 150% or more; inactive means T/C below 125%. Bridge positions count the residues as written; N and C are the ends. Square brackets hold non-standard residues; d marks the D form. Peptide text beside a SMILES is read from it. NMeV = CN[CH](C(=O)O)C(C)C; Sar = CNCC(=O)O

Tested on: L1210 leukemia ip in BDF1 mice, survival T/C
Assay: NCI In Vivo Anticancer Drug Screen. Data for tumor model L1210 Leukemia (intraperitoneal) in B6D2F1 (BDF1) mice
Details: endpoint: mean survival time, higher = longer survival
Summary of the method: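 Ratio derived from survival: compound-dosed mice over vehicle-dosed mice, all bearing a transplantable tumor.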

[1] = dose: 100.0 mg/kg/injection, schedule: Q01DX009 (ip), vehicle: Klucel (hydroxypropylcellulose) (HPC)
[2] = dose: 100.0 mg/kg/injection, schedule: Q04DX003 (ip), vehicle: Klucel (hydroxypropylcellulose) (HPC)
[3] = dose: 200.0 mg/kg/injection, schedule: Q01DX009 (ip), vehicle: Klucel (hydroxypropylcellulose) (HPC)
[4] = dose: 200.0 mg/kg/injection, schedule: Q04DX003 (ip), vehicle: Klucel (hydroxypropylcellulose) (HPC)
[5] = dose: 400.0 mg/kg/injection, schedule: Q01DX009 (ip), vehicle: Klucel (hydroxypropylcellulose) (HPC)
[6] = dose: 400.0 mg/kg/injection, schedule: Q04DX003 (ip), vehicle: Klucel (hydroxypropylcellulose) (HPC)
[7] = dose: 100.0 mg/kg/injection, schedule: Q04DX002 (ip), vehicle: Klucel (hydroxypropylcellulose) (HPC)
[8] = dose: 200.0 mg/kg/injection, schedule: Q04DX002 (ip), vehicle: Klucel (hydroxypropylcellulose) (HPC)
[9] = dose: 400.0 mg/kg/injection, schedule: Q04DX002 (ip), vehicle: Klucel (hydroxypropylcellulose) (HPC)
[10] = dose: 50.0 mg/kg/injection, schedule: Q01DX009 (ip), vehicle: Klucel (hydroxypropylcellulose) (HPC)
[11] = dose: 100.0 mg/kg/injection, schedule: Q04DX003 (ip), vehicle: saline with Tween-80
[12] = dose: 200.0 mg/kg/injection, schedule: Q04DX003 (ip), vehicle: saline with Tween-80

Measured: T/C

O=[N+]([O-])c1ccc(OCc2cc(S(=O)(=O)F)ccc2Cl)c(Cl)c1
inactive: dose: 75.0 mg/kg/injection, schedule: Q04DX003 (ip), vehicle: gum acacia 100 % of control | dose: 150.0 mg/kg/injection, schedule: Q04DX003 (ip), vehicle: gum acacia 96 % of control | dose: 300.0 mg/kg/injection, schedule: Q04DX003 (ip), vehicle: gum acacia 91 % of control

CCOC(=O)C(C(=O)OCC)C1c2ccccc2NC(=O)c2ccccc21 (stereo unspecified)
inactive: [1] 100 % of control | [2] 90 % of control | [3] 100 % of control | [4] 90 % of control | [5] 91 % of control | [6] 88 % of control

N#CCCN1CCCSC1=S
inactive: dose: 75.0 mg/kg/injection, schedule: Q01DX001 (ip), vehicle: other 109 % of control | dose: 150.0 mg/kg/injection, schedule: Q01DX001 (ip), vehicle: other 115 % of control | dose: 300.0 mg/kg/injection, schedule: Q01DX001 (ip), vehicle: other 113 % of control

COc1ccc(C(=O)C(C)(CN(C)C)c2ccccc2)cc1 (stereo unspecified)
inactive: dose: 25.0 mg/kg/injection, schedule: Q01DX009 (ip), vehicle: saline 93 % of control | dose: 25.0 mg/kg/injection, schedule: Q04DX003 (ip), vehicle: saline 92 % of control | dose: 50.0 mg/kg/injection, schedule: Q01DX009 (ip), vehicle: saline 100 % of control | dose: 50.0 mg/kg/injection, schedule: Q04DX003 (ip), vehicle: saline 94 % of control | dose: 100.0 mg/kg/injection, schedule: Q01DX009 (ip), vehicle: saline 102 % of control | dose: 100.0 mg/kg/injection, schedule: Q04DX003 (ip), vehicle: saline 93 % of control and 101 % of control

CC(C)C1NC(=O)C(N)C(C)OC(=O)C(C(C)C)N(C)C(=O)CN(C)C(=O)C2CCCN2C1=O (stereo unspecified) (tested in a mixture with another compound) (H-TVP[Sar][NMeV]; ester 1-C; configuration not given here)
inactive: dose: 0.1 mg/kg/injection, schedule: Q01DX001 (ip), vehicle: saline + alcohol 103 % of control | dose: 0.2 mg/kg/injection, schedule: Q01DX001 (ip), vehicle: saline + alcohol 107 % of control | dose: 0.4 mg/kg/injection, schedule: Q01DX001 (ip), vehicle: saline + alcohol 124 % of control | dose: 0.8 mg/kg/injection, schedule: Q01DX001 (ip), vehicle: saline + alcohol 122 % of control | dose: 15.6 micrograms/kg/injection, schedule: Q01DX009 (ip), vehicle: other 95 % of control | dose: 25.0 micrograms/kg/injection, schedule: Q01DX009 (ip), vehicle: saline + alcohol 106 % of control | dose: 31.3 micrograms/kg/injection, schedule: Q01DX009 (ip), vehicle: other 92 % of control | dose: 62.5 micrograms/kg/injection, schedule: Q01DX009 (ip), vehicle: other 97 % of control | dose: 75.0 micrograms/kg/injection, schedule: Q04DX003 (ip), vehicle: saline + alcohol 103 % of control | dose: 125.0 micrograms/kg/injection, schedule: Q01DX009 (ip), vehicle: other 105 % of control | dose: 150.0 micrograms/kg/injection, schedule: Q04DX003 (ip), vehicle: saline + alcohol 106 % of control | dose: 250.0 micrograms/kg/injection, schedule: Q01DX009 (ip), vehicle: other 121 % of control | dose: 300.0 micrograms/kg/injection, schedule: Q04DX003 (ip), vehicle: saline + alcohol 121 % of control | dose: 500.0 micrograms/kg/injection, schedule: Q01DX009 (ip), vehicle: other 103 % of control | dose: 1200.0 micrograms/kg/injection, schedule: Q04DX003 (ip), vehicle: saline + alcohol 116 % of control

CCOC(=O)C(CCC(=O)O)NC(=O)OCc1ccccc1 (stereo unspecified)
inactive: dose: 50.0 mg/kg/injection, schedule: Q04DX003 (ip), vehicle: Klucel (hydroxypropylcellulose) (HPC) 94 % of control | [1] 101 % of control | [2] 94 % of control and 100 % of control | [3] 106 % of control | [4] 93 % of control

NC(=S)N/N=C/c1cc(Br)cc(Br)c1O
inactive: [7] 95 % of control | [8] 91 % of control | [9] 100 % of control

O=[N+]([O-])c1ccc(S(=O)c2ccc([N+](=O)[O-])cc2)cc1
inactive: [1] 108 % of control | [2] 98 % of control | [3] 95 % of control | [4] 98 % of control | [5] 101 % of control | [6] 93 % of control

COc1c(Cl)c(C(Cl)(Cl)Cl)nc2ccccc12
inactive: [10] 101 % of control | [1] 104 % of control

COc1ccc(C(=O)/C=C/c2ccccc2Cl)cc1
inactive: [11] 97 % of control | [12] 97 % of control

CNC(=S)N/N=C/c1ccc(OC)c(OC)c1OC
inactive: [1] 102 % of control | [3] 120 % of control | [5] 98 % of control

O=C1OC(c2ccccc2)CC1NCc1ccccc1 (stereo unspecified)
inactive: dose: 100.0 mg/kg/injection, schedule: Q01DX001 (ip), vehicle: Klucel (hydroxypropylcellulose) (HPC) 98 % of control | dose: 200.0 mg/kg/injection, schedule: Q01DX001 (ip), vehicle: Klucel (hydroxypropylcellulose) (HPC) 101 % of control | dose: 400.0 mg/kg/injection, schedule: Q01DX001 (ip), vehicle: Klucel (hydroxypropylcellulose) (HPC) 96 % of control

CCC(O)C(CC(C)N(C)C)(c1ccccc1)c1ccccc1 (stereo unspecified)
inactive: dose: 100.0 mg/kg/injection, schedule: Q01DX001 (ip), vehicle: saline 108 % of control

Cc1cccc(C)c1NC(=O)Nc1ncccn1
inactive: dose: 25.0 mg/kg/injection, schedule: Q04DX002 (ip), vehicle: Klucel (hydroxypropylcellulose) (HPC) 99 % of control | dose: 50.0 mg/kg/injection, schedule: Q04DX002 (ip), vehicle: Klucel (hydroxypropylcellulose) (HPC) 96 % of control | [1] 103 % of control | [7] 105 % of control | [3] 104 % of control | [8] 97 % of control | [5] 101 % of control | [9] 93 % of control

CCCC[P+](C)(CCCC)CCCC
inactive: dose: 8.8 mg/kg/injection, schedule: Q01DX Z (ip), vehicle: saline 98 % of control | dose: 13.3 mg/kg/injection, schedule: Q01DX Z (ip), vehicle: saline 93 % of control | dose: 20.0 mg/kg/injection, schedule: Q01DX Z (ip), vehicle: saline 86 % of control

O=C(OC1CCCCCCC1)C(F)(F)F
inactive: [1] 98 % of control | [2] 104 % of control | [3] 101 % of control | [4] 105 % of control | [5] 92 % of control | [6] 105 % of control

Nc1ccccc1SC1CC(=O)N(c2ccc(Br)cc2Cl)C1=O (stereo unspecified)
inactive: [10] 90 % of control and 92 % of control | [1] 91 % of control | [2] 98 % of control | [3] 93 % of control and 96 % of control and 91 % of control | [4] 93 % of control | [5] 96 % of control | [6] 93 % of control

CC(=O)Nc1nc(C=O)c(CCCCc2ccccc2)c(=O)[nH]1
inactive: dose: 80.0 mg/kg/injection, schedule: Q01DX001 (ip), vehicle: Klucel (hydroxypropylcellulose) (HPC) 102 % of control | dose: 160.0 mg/kg/injection, schedule: Q01DX001 (ip), vehicle: Klucel (hydroxypropylcellulose) (HPC) 107 % of control | dose: 320.0 mg/kg/injection, schedule: Q01DX001 (ip), vehicle: Klucel (hydroxypropylcellulose) (HPC) 107 % of control

CSc1nc(N)c2n[nH]nc2n1
inactive: [11] 103 % of control | [12] 95 % of control | dose: 400.0 mg/kg/injection, schedule: Q04DX003 (ip), vehicle: saline with Tween-80 95 % of control

N#Cc1nc2nc(C(F)(F)F)[nH]c2nc1C#N
inactive: dose: 12.5 mg/kg/injection, schedule: Q01DX009 (ip), vehicle: saline with Tween-80 101 % of control | dose: 12.5 mg/kg/injection, schedule: Q04DX003 (ip), vehicle: saline with Tween-80 120 % of control | dose: 25.0 mg/kg/injection, schedule: Q01DX009 (ip), vehicle: saline with Tween-80 103 % of control | dose: 25.0 mg/kg/injection, schedule: Q04DX003 (ip), vehicle: saline with Tween-80 103 % of control | dose: 50.0 mg/kg/injection, schedule: Q01DX009 (ip), vehicle: saline with Tween-80 93 % of control

CC[Si](CC)(CC)c1ccc(CCNCCS)s1
inactive: dose: 75.0 mg/kg/injection, schedule: Q04DX003 (ip), vehicle: saline 95 % of control | dose: 150.0 mg/kg/injection, schedule: Q04DX003 (ip), vehicle: saline 93 % of control

Clc1ccc2scc3c4ccccc4nc-3c2c1
inactive: dose: 100.0 mg/kg/injection, schedule: Q04DX003 (ip), vehicle: acetone 102 % of control
